Patent US20230026360A1, “DETECTION OF MOLECULAR INTERACTIONS” (Orionis Biosciences, Inc., priority 2019, published 2023)
“Also recorded” adds a separate entry of the source.

Assays:
Format in all cases: cell-based
[1] = molecular target: CRBN-CSNK1A (CK1a) interaction (Homo sapiens, UniProt Q96SW2); assay: MAPPIT forward assay, CRBN receptor fusion + CSNK1A1 gp130 fusion; parameters: MAPPIT chimeric receptor (EPO receptor extracellular domain + signaling-deficient leptin receptor part); expressed in transfected cells; host or cells: HEK293T; settings: forward configuration; HEK293T cells; EPO; dose-response
Description: (§1) The traditional MAPPIT assay has been used to monitor protein-protein interactions. A bait protein (protein A) is expressed as a fusion protein in which it is genetically fused to an engineered intracellular receptor domain of the leptin receptor, which is itself fused to the extracellular domain of the erythropoietin (Epo) receptor. Binding of Epo ligand to the Epo receptor component results in activation of receptor-associated intracellular JAK2. However, activated JAK2 cannot activate the leptin receptor to trigger STAT3 binding and its phosphorylation because its tyrosine residues, normally phosphorylated by activated JAK2, have been mutated. […] Activation of STAT3 can be monitored by introduction of a STAT3-responsive reporter gene, including a luciferase-encoding gene or a gene encoding a fluorescent marker such as GFP or some other type of Fluorescent Protein (EGFP etc.). […]
(§2) Full size proteins were fused for each of the target/prey proteins tested, except in the case of IKZF1 where isoform 7 was used. […] Luciferase activity was measured 24 hours after test compound treatment using the Luciferase Assay System kit (PROMEGA, Madison, Wis.) with an Ensight plate reader (PERKIN ELMER LIFE SCIENCES, Waltham, Mass.). […]

CRBN-IKZF3 interaction = CRBN-IKZF3 interaction (Homo sapiens, UniProt Q96SW2); assay: MAPPIT forward assay, CRBN receptor fusion + IKZF3 gp130 fusion; parameters: MAPPIT chimeric receptor (EPO receptor extracellular domain + signaling-deficient leptin receptor part); expressed in transfected cells; host or cells: HEK293T; settings: forward configuration; HEK293T cells; EPO; dose-response
Description: as §1, §2

CRBN = molecular target: T1, CRBN (Homo sapiens, UniProt Q96SW2); assay: CRBN inverse MAPPIT competition assay against TMP-lenalidomide hybrid ligand; settings: 300 nM TMP-lenalidomide; leptin; HEK293T; specificity versus gp130-REM2 control (CTRL)
T1 construct: expressed in transfected cells; host or cells: HEK293T
Description: As in Example 6, HEK293T cells were transfected with a plasmid encoding E. coli Dihydrofolate Reductase (DHFR) fused to the tails of the cytoplasmic domain of a mutated leptin receptor (pCLG-DHFR), a plasmid encoding a CRBN prey fused to the gp130 cytoplasmic domain or a plasmid encoding a gp130-REM2 control fusion that can directly interact with the leptin receptor of the DHFR fusion protein, and the STAT3 responsive pXP2d2-rPAPI-luciferase reporter plasmid—using a standard transfection method, as described (Lievens, et al. “Array MAPPIT: high-throughput interactome analysis in mammalian cells.” Journal of Proteome Research 8.2 (2009): 877-886). […] Data points in FIGS. 10A-B represent the average luciferase activity of triplicate samples derived from cells treated with leptin+test compound for the REM2 control (CTRL) or cells treated with leptin+hybrid ligand+test compound (CRBN) relative to leptin (CTRL) or leptin+hybrid ligand (CRBN) only treated samples (the signals obtained in absence of added test compound for both cases is set at 100% of luciferase activity on y-axis). Error bars represent standard deviations. Curves were fit using 4-parameter nonlinear regression in […] PRISM software.

CRBN-IKZF2 interaction = CRBN-IKZF2 interaction (Homo sapiens, UniProt Q96SW2); assay: MAPPIT forward assay, CRBN receptor fusion + IKZF2 gp130 fusion; parameters: MAPPIT chimeric receptor (EPO receptor extracellular domain + signaling-deficient leptin receptor part); expressed in transfected cells; host or cells: HEK293T; settings: forward configuration; HEK293T cells; EPO; dose-response
Description: as §1, §2

CRBN-CSNK1A1 interaction = molecular target: T2, CRBN-CSNK1A1 interaction (Homo sapiens, UniProt Q96SW2); assay: MAPPIT inverse assay with alternative CSNK1A1 receptor fusion (leptin receptor extracellular domain, pCLG-CSNK1A1); settings: inverse configuration, activated with leptin, 0, 0.1, 1, 10 μM, HEK293T
T2 construct: expressed in transfected cells; host or cells: HEK293T
Method: Cells were treated with leptin without or with the indicated dose of test compound at 24 hours after transfection. Luciferase activity was measured 24 hours after test compound treatment using the Luciferase Assay System kit (PROMEGA, Madison, Wis.) with an Ensight plate reader (PERKIN ELMER LIFE SCIENCES, Waltham, Mass.). […] Error bars represent standard deviations.

CRBN-IKZF1 interaction = molecular target: T3, CRBN-IKZF1 interaction (Homo sapiens, UniProt Q96SW2); assay: MAPPIT inverse assay, CRBN gp130 fusion + IKZF1 receptor fusion; settings: inverse configuration; HEK293T cells; EPO; dose-response; IKZF1 isoform 7
T3 construct: expressed in transfected cells; host or cells: HEK293T
Description: as §1, §2

O=C1CC[C@H](N2Cc3c(OCc4ccc(CN5CCOCC5)cc4)cccc3C2=O)C(=O)N1 [CC-220]
compound-induced binding of CSNK1A (CK1a) to CRBN (luciferase reporter signal) [1]: only in the inverse assay setup an interaction signal response could be detected
compound-induced binding of IKZF3 to CRBN (luciferase reporter signal) (CRBN-IKZF3 interaction): only in the inverse assay setup an interaction signal response could be detected
competition with TMP-lenalidomide hybrid ligand for binding to CRBN (inhibition of luciferase signal) (CRBN): specifically inhibit hybrid-ligand induced luciferase reporter activation in a dose-dependent manner; also recorded: competed efficiently
compound-induced binding of IKZF2 to CRBN (luciferase reporter signal) (CRBN-IKZF2 interaction): only in the inverse assay setup an interaction signal response could be detected
compound-induced CRBN-CSNK1A1 interaction (CSNK1A1 neosubstrate recruitment) (CRBN-CSNK1A1 interaction): CSNK1A1 neosubstrate recruitment can be detected
compound-induced binding of IKZF1 to CRBN (luciferase reporter signal) (CRBN-IKZF1 interaction): can be detected with both the forward and the inverse assay configuration
